Tests used:
Format in all cases: cell-based
[1] = tested on: KRAS G12D mutant human lung cancer cell A427; experiment: 3D cell proliferation inhibition assay, A427; settings: A-427, 168 h, 3D culture, 7 days, CTG
Description: (§1) Test Example 6: 3D Cell Proliferation Inhibition Assay
(§2) The inhibitory effects of the compounds on 3D cell proliferation were investigated on KRAS G12C mutant human non-small cell lung cancer cell NCI-H358, KRAS G12D mutant human lung cancer cell A427, KRAS G12D mutant human gastric cancer cell AGS, KRAS G12D mutant human metastatic pancreatic cancer cell AsPc-1, KRAS G12V mutant human lung squamous carcinoma cell SW900, KRAS G12V mutant human colorectal cancer cell SW620, KRAS G13D mutant human colorectal cancer epithelial cell DLD-1, and KRAS WT human gastric cancer cell MKN1. The specific procedures were as follows:
(§3) 10 μL of each compound solution diluted in a gradient was added to corresponding wells of a 96-well low-adsorption microplate (PerkinElmer), so that the final concentrations of the test compounds in the reaction system were in a range of 10000-0.026 nM. The final concentration of DMSO was 0.2%. Then 90 µL of cells were correspondingly seeded into each well to achieve a cell density of 5×10^2 cells/well (the cell density of SW900 was 5×10^3 cells/well, and the cell density of MKN1 was 1×10^3 cells/well). In addition to test wells for the test compounds, both a DMSO control well and a medium control well were set, with the DMSO control well containing DMSO and cells and the medium well containing only a medium. After the sample loading, the 96-well low-adsorption microplate was incubated in an incubator at 37° C. with […] for 7 days. After 7 days, the microplate was taken out, and 100 μL of CTG reagent (Promega) was added to each well. The plate was incubated at room temperature for 60 m and read on a microplate reader EnVision by the chemiluminescence program. The inhibition rates of the compounds at each concentration were calculated using the formula for the percentage inhibition of cell proliferation: inhibition rate 00=(mean value of DMSO control group−single concentration reading value of compound)/(mean value of DMSO control group−mean value of medium control group)×100. Then non-linear curve fillings for logarithmic concentration-inhibition rate were performed by GraphPad Prism 8, and the IC50 values of the compounds were obtained (Table 6).

[2] = tested on: KRAS G12D mutant human gastric cancer cell AGS; experiment: 3D cell proliferation inhibition assay, AGS; settings: 168 h, 3D culture, 7 days, CTG
Description: as §1, §2, §3

[3] = tested on: KRAS G12C mutant human non-small cell lung cancer cell NCI-H358; experiment: 3D cell proliferation inhibition assay, NCI-H358; settings: NCI-H358, 168 h, 3D culture, 7 days, CTG
Description: as §1, §2, §3

[4] = tested on: KRAS G12V mutant human lung squamous carcinoma cell SW900; experiment: 3D cell proliferation inhibition assay, SW900; settings: SW900, 168 h, 3D culture, 7 days, CTG
Description: as §1, §2, §3

[5] = tested on: KRAS WT human gastric cancer cell MKN1; experiment: 3D cell proliferation inhibition assay, MKN1; settings: MKN-1, 168 h, 3D culture, 7 days, CTG
Description: as §1, §2, §3

[6] = molecular target: T1, KRAS G12V protein in SW900 cells (Homo sapiens, UniProt P01116, G12V); experiment: KRAS degradation assay (Western Blot) in SW900 cells; settings: 24 h
T1 construct: endogenous in cells; host or cells: SW900
Description: (§4) Test Example 5: KRAS G12C, KRAS G12D, KRAS G12V, KRAS G13D, and KRAS WT (Expanded) Degradation Assays
(§5) The degradation effect of the compounds on KRAS was investigated on KRAS G12C mutant human non-small cell lung cancer cell NCI-H358, KRAS G12D mutant human metastatic pancreatic cancer cell AsPc-1, KRAS G12D mutant human lung cancer cell A427, KRAS G12V mutant human colorectal cancer cell SW620, KRAS G12V mutant human lung cancer cell SW900, KRAS G13D mutant human colorectal cancer epithelial cell DLD-1, and KRAS WT human gastric cancer cell MKN-1. The specific procedures were as follows: 0.95 mL of cells were seeded into each well of a 24-well cell culture plate to achieve a cell density of 5×10^5 cells/well; and the cell plate was incubated in an incubator at 37° C. with 5% CO2 overnight. Then 50 μL of the compound solution after dilution was added to each of the wells with the corresponding cells, so that the final concentration of the compound was in a range of 0.03-3000 nM. The final concentration of DMSO was 0.25%. After the compounds were added, the cell plate was incubated in an incubator at 37° C. with 5% CO2 for 24 h. The culture medium in the 24-well cell culture plate was then removed, and the plate was washed twice with 1×PBS (KeyGEN). 120 μL of RIPA (strong) lysis buffer (Beyotime) (supplemented with 1 mM phenylmethylsulfonyl fluoride, a protease inhibitor mixture (Beyotime), and a protease phosphatase inhibitor mixture (Beyotime)) was added to lyse adherent SW900 cells at the bottom of the cell culture plate. After the plate was left to stand on ice for 30 min, the protein lysate in each well was transferred to a 1.5 mL centrifuge tube and centrifuged at 15000 g for 20 min at 4° C. The cell lysate supernatants after centrifugation were cryopreserved in a refrigerator at −80° C. for later use.
(§6) After the samples of the cell lysate supernatants that had been prepared were thawed from the refrigerator at −80° C., the total protein concentrations of the cell lysates were determined using a BCA protein quantification kit (Tiangen). The total protein concentrations of the samples were then adjusted to 0.5 μg/μL with PBS and 5×SDS-PAGE protein loading buffer (Beyotime), and the samples were incubated in a water bath at 100° C. for 15 min. The samples were then incubated in an ice bath for 5 min and centrifuged at 14000 g for 1 min at 4° C., and the supernatants were mixed well as loading samples for the Western Blot assay. The samples were loaded into wells of a 10% precast gel (KeyGEN) with a loading volume of 10 μL (total protein: 5 μg), a sufficient Tris-MOPS-SDS running buffer (Adamas) was added, and then electrophoresis was performed at a constant voltage of 120 V for 55 min. After the electrophoresis, the proteins on the gel were transferred to PVDF membranes at a constant current of 250 mA for 55 min. After the membrane transfer, the PVDF membranes were incubated in 1× Quick Block blocking buffer (Beyotime)at room temperature for 30 min. After the blocking, the PVDF membranes were separately incubated at 4° C. overnight with the KRAS antibody (Abcam) diluted in a ratio of 1:1000 and the β-actin antibody (Abcam) diluted in a ratio of 1:2000 in 5% BSA as the diluent, and then washed with 1×TBST buffer (2.4 g of Tris, 8.8 g of NaCl, 1.5 mL of Tween 20, with pH adjusted to 7.4, with the volume brought to 1 L) 3 times for 10 min/time. The membranes were incubated with a secondary antibody (Abcam) diluted in 5% BSA at room temperature for 2 h, and then washed with 1×TBST buffer 3 times for 10 min/time. Finally, the membranes were incubated with Clarity Western ECL Substrate (BIO-RAD) for 5 min for luminescence and color development, and a ChemiScope 6200 Touch chemiluminescence imaging system (Clinx) was used for color development and protein mapping. Gray value analysis of the protein maps was performed using the chemiluminescence analysis software (Clinx). […]

[7] = tested on: KRAS G12D mutant human metastatic pancreatic cancer cell AsPc-1; experiment: 3D cell proliferation inhibition assay, AsPc-1; settings: ASPC1, 168 h, 3D culture, 7 days, CTG
Description: as §1, §2, §3

[8] = tested on: KRAS G12V mutant human colorectal cancer cell SW620; experiment: 3D cell proliferation inhibition assay, SW620; settings: SW-620, 168 h, 3D culture, 7 days, CTG
Description: as §1, §2, §3

[9] = tested on: KRAS G13D mutant human colorectal cancer epithelial cell DLD-1; experiment: 3D cell proliferation inhibition assay, DLD-1; settings: DLD-1, 168 h, 3D culture, 7 days, CTG
Description: as §1, §2, §3

[10] = molecular target: T2, KRAS G12V protein in SW620 cells (Homo sapiens, UniProt P01116, G12V); experiment: KRAS degradation assay (Western Blot) in SW620 cells
T2 construct: endogenous in cells; host or cells: SW620
Description: as §4, §5, §6

[11] = molecular target: T3, KRAS G13D protein in DLD-1 cells (Homo sapiens, UniProt P01116, G13D); experiment: KRAS degradation assay (Western Blot) in DLD-1 cells; settings: 24 h
T3 construct: endogenous in cells; host or cells: DLD-1
Description: as §4, §5, §6

T1 sequence (P01116 1-188 isoform P01116-2 G12V): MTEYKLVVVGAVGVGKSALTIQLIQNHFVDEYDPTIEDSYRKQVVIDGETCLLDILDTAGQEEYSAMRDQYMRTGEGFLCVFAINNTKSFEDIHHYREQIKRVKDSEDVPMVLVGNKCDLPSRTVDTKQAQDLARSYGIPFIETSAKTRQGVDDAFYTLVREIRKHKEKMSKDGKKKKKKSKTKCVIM
T2 sequence (P01116 1-188 isoform P01116-2 G12V): as above
T3 sequence (P01116 1-188 isoform P01116-2 G13D): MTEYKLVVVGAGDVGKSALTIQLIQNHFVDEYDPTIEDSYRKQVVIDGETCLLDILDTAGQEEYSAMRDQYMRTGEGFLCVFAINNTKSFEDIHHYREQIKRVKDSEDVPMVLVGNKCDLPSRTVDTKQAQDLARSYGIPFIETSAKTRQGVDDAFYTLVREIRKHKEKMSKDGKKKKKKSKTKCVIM

IC50 [1] [nM] | IC50 [2] [nM] | IC50 [3] [nM] | IC50 [4] [nM] | IC50 [5] [nM] | DC50 [6] [nM] | Dmax [6] [%] | IC50 [7] [nM] | IC50 [8] [nM] | IC50 [9] [nM] | DC50 ([10]; 24 h) [nM] | Dmax ([10]; SW-620, 24 h) [%] | DC50 [11] [nM] | Dmax [11] [%] | Structure (SMILES)
500 to 1000 | 500 to 1000 | 500 to 1000 | ≤ 50 | 50 to 100 | – | – | – | – | – | – | – | – | – | C#Cc1c(F)ccc2cc(O)cc(-c3ncc4c(N5CCC[C@@](C)(O)C5)nc(OCC5(CN6CCN(CC7CCC8(CC7)CCN(C(=O)c7ccc9c(c7)C(=O)N(C7CCC(=O)NC7=O)C9=O)CC8)CC6)CC5)nc4c3F)c12 (stereo partly drawn) [Example 13, 2-(2,6-dioxopiperidin-3-yl)-5-(9-((4-((1-(((7-(8-ethynyl-7-fluoro-3-hydroxynaphthalen-1-yl)-8-fluoro-4-((R)-3-hydroxy-3-methylpiperidin-1-yl)pyrido[4,3-d]pyrimidin-2-yl)oxy)methyl)cyclopropyl)methyl)piperazin-1-yl)methyl)-3-azaspiro[5.5]undecane-3-carbonyl)isoindoline-1,3-dione]
– | 69.5 | 23.6 | 46.8 | 5.55 | ≤ 50 | 80 to 100 | 64.2 | 12.3 | 63.5 | – | – | – | – | CCc1cccc2cc(O)cc(-c3ccc4c(N5CCC[C@@](C)(O)C5)nc(OCC5(CN6CCN(CC7CCC8(CC7)CCN(C(=O)c7ccc(OC)c(N9CCC(=O)NC9=O)c7)CC8)CC6)CC5)nc4c3F)c12 [Example 23, (R)-1-(5-(9-((4-((1-(((7-(8-ethyl-3-hydroxynaphthalen-1-yl)-8-fluoro-4-(3-hydroxy-3-methylpiperidin-1-yl)quinazolin-2-yl)oxy)methyl)cyclopropyl)methyl)piperazin-1-yl)methyl)-3-azaspiro[5.5]undecane-3-carbonyl)-2-methoxyphenyl)dihydropyrimidine-2,4(1H,3H)-dione]
– | – | ≤ 50 | ≤ 50 | ≤ 50 | ≤ 50 | 80 to 100 | ≤ 50 | 3.47 | – | – | – | – | – | C#Cc1cccc2cc(O)cc(-c3ncc4c(N5CCC[C@@](C)(O)C5)nc(OCC5(CN6CCN(CC7CCC8(CC7)CCN(C(=O)c7ccc(C)c(N9CCC(=O)NC9=O)c7)CC8)CC6)CC5)nc4c3F)c12 [Example 27, (R)-1-(5-(9-((4-((1-(((7-(8-ethynyl-3-hydroxynaphthalen-1-yl)-8-fluoro-4-(3-hydroxy-3-methylpiperidin-1l-yl)pyrido[4,3-d]pyrimidin-2-yl)oxy)methyl)cyclopropyl)methyl)piperazin-1-yl)methyl)-3-azaspiro[5.5]undecane-3-carbonyl)-2-methylphenyl)dihydropyrimidine-2,4(1H,3H)-dione]
– | – | – | ≤ 50 | ≤ 50 | ≤ 50 | 80 to 100 | 50 to 100 | 9.08 | – | – | – | – | – | C#Cc1c(F)ccc2cc(O)cc(-c3ccc4c(N5CCC[C@@](C)(O)C5)nc(OCC5(CN6CCN(CC7CCC8(CC7)CCN(C(=O)c7ccc(C)c(N9CCC(=O)NC9=O)c7)CC8)CC6)CC5)nc4c3F)c12 [Example 41, (R)-1-(5-(9-((4-((1-(((7-(8-ethynyl-7-fluoro-3-hydroxynaphthalen-1-yl)-8-fluoro-4-(3-hydroxy-3-methylpiperidin-1-yl)quinazolin-2-yl)oxy)methyl)cyclopropyl)methyl)piperazin-1-yl)methyl)-3-azaspiro[5.5]undecane-3-carbonyl)-2-methylphenyl)dihydropyrimidine-2,4(1H,3H)-dione]
– | – | 5.58 | – | 9.19 | – | – | 24 | 2.93 | 5.68 | 6.73 | 98.9 | 7.28 | 100 | C#Cc1c(F)ccc2cc(O)cc(-c3ncc4c(N5CCC[C@@](C)(O)C5)nc(OC[C@H](C)CN5CCN(CC6CCC7(CC6)CCN(C(=O)c6ccc(CC)c(N8CCC(=O)NC8=O)c6)CC7)CC5)nc4c3F)c12 [Example 133, 1-(2-ethyl-5-(9-((4-((R)-3-((7-(8-ethynyl-7-fluoro-3-hydroxynaphthalen-1-yl)-8-fluoro-4-((R)-3-hydroxy-3-methylpiperidin-1-yl)pyrido[4,3-d]pyrimidin-2-yl)oxy)-2-methylpropyl)piperazin-1-yl)methyl)-3-azaspiro[5.5]undecane-3-carbonyl)phenyl)dihydropyrimidine-2,4(1H,3H)-dione]

Source: US20260167622A1, “PAN-KRAS DEGRADING AGENT, AND PREPARATION METHOD THEREFOR AND USE THEREOF” (LEADINGTAC PHARMACEUTICAL (SHAOXING) CO., LTD., priority 2022, published 2026)
